Compared with `Cc1ccc(-c2cccc(/C=C/C(=O)Nc3ccc(CN4CCCCC4CO)cc3)c2)cc1` (stereo not shown) [Compound 68, (E)-N-[4-[2—(hydroxy-methyl)piperidinomethyl]phenyl]-3—(4-methylphenyl)cinnamamide], `Cc1ccc(-c2cccc(/C=C/C(=O)Nc3ccc(CN4CCCCC4CCO)cc3)c2)cc1` (stereo not shown) [Compound 69, (E)-N-[4-[2—(2-hydroxyethyl)piperidinomethyl]phenyl]-3—(4-methylphenyl)cinnamamide] is higher in melting point: 137 to 139 °C for the first, 142 to 143 °C for the second.

Compared with `Cc1ccc(-c2cccc(/C=C/C(=O)Nc3ccc(CN4CCCCC4)cc3)c2)cc1` [Compound 70, (E)-N-[4—(piperidinomethyl)phenyl]-3—(4-methylphenyl)cinnamamide], `O=C(C=Cc1cccc(-c2ccc(F)cc2)c1)Nc1ccc(CN2CCCCC2)cc1` [Compound 83, 1—(4—(3—(4-fluoro-phenyl)cinnamoylamino)benzyl)piperidine] is higher in melting point: 154 to 156 °C for the first, 166 to 167 °C for the second.

First: Cc1ccc(-c2cccc(/C=C/C(=O)Nc3ccc(C(O)c4ccccn4)cc3)c2)cc1 (stereo not shown) [Compound 79, (E)-N-[4-[hydroxy(2-pyridyl)methyl]phenyl]-3—(4-methylphenyl)cinnamamide]
Second: Cc1ccc(-c2cccc(/C=C/C(=O)Nc3ccc(C(O)c4cccc[n+]4[O-])cc3)c2)cc1 (stereo not shown) [Compound 80, (E)-N-[4-[hydroxy(1-oxido-2-pyridyl)methyl]-phenyl]-3—(4-methylphenyl)cinnamamide]
The melting point of the first is lower: 162 to 165 °C for the first, 165 to 167 °C for the second.

First: O=C(C=Cc1cccc(-c2ccccc2)c1)Nc1ccc(CN2CCCCC2)cc1 [Compound 81, 1—(4—(3-phenylcinnamoylamino)-benzyl)piperidine]
Second: Cc1ccc(-c2ccc3c(c2)C=C(C(=O)Nc2ccc(CN4CCCCC4)cc2)CCS3)cc1 [Compound 93, 7—(4-methylphenyl)-N-(4-piperidinomethylphenyl)-2,3-dihydro-1-benzothiepine-4-carboxamide]
The melting point of the first is lower: 159 to 160 °C for the first, 203 to 204 °C for the second.

Compared with `Cc1ccc(-c2ccc3c(c2)C=C(C(=O)Nc2ccc(CSc4ccccc4)cc2)CCO3)cc1` [Compound 82, 7—(4-methylphenyl)-N-(4—(phenyl-thiomethyl)phenyl)-2,3-dihydro-1-benzoxepine-4-carboxamide], `Cc1ccc(-c2ccc3c(c2)C=C(C(=O)Nc2ccc(CSCc4ccccc4)cc2)CCO3)cc1` [Compound 86, N-(4—(benzylthiomethyl)phenyl)-7—(4-methylphenyl)-2,3-dihydro-1-benzoxepine-4-carboxamide] is lower in melting point: 176 to 177 °C for the first, 145 to 146 °C for the second.

First: CN1CCCN(C)P1(=O)Cc1ccc(NC(=O)C2=Cc3cc(-c4ccccc4)ccc3CC2)cc1 [Compound 89, 2—(4—(3,4-dihydro-7-phenyl-naphthalene-2-carbonyl-amino)benzyl)-1,3-dimethyl-1,3,2-diazaphosphorinane-2-oxide]
Second: Cc1ccc(-c2ccc3c(c2)C=C(C(=O)Nc2ccc(CCN4CCCCC4)cc2)CCO3)cc1 [Compound 99, N-(4—(2-piperidinoethyl)phenyl)-7—(4-methylphenyl)-2,3-dihydro-1-benzoxepine-4-carboxamide]
The melting point of the first is higher: 249 to 250 °C for the first, 201 to 202 °C for the second.

First: Cc1ccc(-c2ccc3c(c2)C=C(C(=O)Nc2ccc(CN(C)C4CCOCC4)cc2)CC(c2ccccc2)O3)cc1 (stereo not shown) [Compound 101, 7—(4-methylphenyl)-2-phenyl-N-(4—((N-tetrahydropyran-4-yl-N-methylamino)methyl)phenyl)-2,3-dihydro-1-benzoxepine-4-carboxamide]
Second: Cc1ccc(-c2ccc3c(c2)C=C(C(=O)Nc2ccc(CN(C)C4CCOCC4)cc2)CC(C)O3)cc1 (stereo not shown) [Compound 104, 7—(4-methylphenyl)-2-methyl-N-(4—((N-tetrahydropyran-4-yl-N-methylamino)methyl)phenyl)-2,3-dihydro-1-benzoxepine-4-carboxamide]
The melting point of the first is higher: 178 to 179 °C for the first, 170 to 171 °C for the second.

First: Cc1ccc(-c2ccc3c(c2)C=C(C(=O)Nc2ccc(CN4CCCCC4)cc2)CC(c2ccccc2)O3)cc1 (stereo not shown) [Compound 102, 7—(4-methylphenyl)-2-phenyl-N-(4—(piperidinomethyl)phenyl)-2,3-dihydro-1-benzoxepine-4-carboxamide]
Second: Cc1ccc(-c2ccc3c(c2)C=C(C(=O)Nc2ccc(CN4CCCCC4)cc2)CC(C)O3)cc1 (stereo not shown) [Compound 105, 7—(4-methylphenyl)-2-methyl-N-(4—(piperidinomethyl)phenyl)-2,3-dihydro-1-benzoxepine-4-carboxamide]
The melting point of the first is higher: 210 to 211 °C for the first, 175 to 176 °C for the second.

First: Cc1ccc(-c2ccc3c(c2)C=C(C(=O)Nc2ccc(CS(=O)(=O)C4CCCCC4)cc2)CCO3)cc1 [Compound 107, N-(4—(cyclohexylsulfonylmethyl)phenyl)-7—(4-methylphenyl)-2,3-dihydro-1-benzoxepine-4-carboxamide]
Second: Cc1ccc(-c2ccc3c(c2)C=C(C(=O)Nc2ccc(CNC4CCCCC4)cc2)CCO3)cc1 [Compound 114, N-(4—((cyclohexylamino)methyl)phenyl)-7—(4-methylphenyl)-2,3-dihydro-1-benzoxepine-4-carboxamide]
The melting point of the first is higher: 250 to 251 °C for the first, 183 to 184 °C for the second.

First: Cc1ccc(-c2ccc3c(c2)C=C(C(=O)Nc2ccc(C[S+]([O-])c4ccccc4)cc2)CCO3)cc1 (stereo not shown) [Compound 108, 7—(4-methylphenyl)-N-(4—(phenylsulfinylmethyl)phenyl)-2,3-dihydro-1-benzoxepine-4-carboxamide]
Second: Cc1ccc(-c2ccc3c(c2)C=C(C(=O)Nc2ccc(C[S+]([O-])Cc4ccccc4)cc2)CCO3)cc1 (stereo not shown) [Compound 109, N-(4—(benzylsulfinylmethyl)phenyl)-7—(4-methylphenyl)-2,3-dihydro-1-benzoxepine-4-carboxamide]
The melting point of the first is lower: 127 to 128 °C for the first, 208 to 209 °C for the second.

First: Cc1ccc(-c2ccc3c(c2)C=C(C(=O)Nc2ccc(CNc4ccccc4)cc2)CCO3)cc1 [Compound 115, N-(4—((phenylamino)methyl)phenyl)-7—(4-methylphenyl)-2,3-dihydro-1-benzoxepine-4-carboxamide]
Second: Cc1ccc(-c2ccc3c(c2)C=C(C(=O)Nc2ccc(CNCc4ccccc4)cc2)CCO3)cc1 [Compound 117, N-(4—((benzylamino)methyl)phenyl)-7—(4-methylphenyl)-2,3-dihydro-1-benzoxepine-4-carboxamide]
The melting point of the first is higher: 157 to 158 °C for the first, 147 to 148 °C for the second.

First: Cc1ccc(-c2ccc3c(c2)C=C(C(=O)Nc2ccc(CN(C(C)C)C(C)C)cc2)CCO3)cc1 [Compound 119, N-(4—((diisopropylamino)methyl)phenyl)-7—(4-methylphenyl)-2,3-dihydro-1-benzoxepine-4-carboxamide]
Second: Cc1ccc(-c2ccc3c(c2)C=C(C(=O)Nc2ccc(CNCC4CCCCC4)cc2)CCO3)cc1 [Compound 122, N-(4—((cyclohexylmethyl)aminomethyl)phenyl)-7—(4-methylphenyl)-2,3-dihydro-1-benzoxepine-4-carboxamide]
The melting point of the first is lower: 152 to 153 °C for the first, 154 to 155 °C for the second.

First: CN1CCN(c2ccc(-c3ccc4c(c3)C=C(C(=O)Nc3ccc(CN(C)C5CCOCC5)cc3)CCO4)cc2)CC1 [Compound 124, 7—(4—(4-methylpiperazin-1-yl)phenyl)-N-(4—((N-tetrahydropyran-4-yl-N-methylamino)methyl)phenyl)-2,3-dihydro-1-benzoxepine-4-carboxamide]
Second: CN(Cc1ccc(NC(=O)C2=Cc3cc(-c4ccc(N5CCCC5)cc4)ccc3OCC2)cc1)C1CCOCC1 [Compound 150, 7—(4—(pyrrolidin-1-yl)phenyl)-N-(4—((N-tetrahydropyran-4-yl-N-methylamino)-methyl)phenyl)-2,3-dihydro-1-benzoxepine-4-carboxamide]
The melting point of the first is higher: 220 to 221 °C for the first, 210 to 211 °C for the second.

Compared with `Cc1ccc(-c2ccc3c(c2)C=C(C(=O)Nc2ccc(C(O)CN4CCCCC4)cc2)CCO3)cc1` (stereo not shown) [Compound 145, N-(4—(1-hydroxy-2-piperidinoethyl)phenyl)-7—(4-methylphenyl)-2,3-dihydro-1-benzoxepine-4-carboxamide], `Cc1ccc(-c2ccc3c(c2)C=C(C(=O)Nc2ccc(-c4ccccn4)cc2)CCO3)cc1` [Compound 159, N-[4—(2-pyridyl)phenyl]-7—(4-methylphenyl)-2,3-dihydro-1-benzoxepine-4-carboxamide] is higher in melting point: 212 to 213 °C for the first, 228 to 229 °C for the second.

First: CN(Cc1ccc(NC(=O)C2=Cc3cc(-c4cccnc4)ccc3OCC2)cc1)C1CCOCC1 [Compound 146, 7—(3-pyridyl)-N-(4—((N-tetrahydropyran-4-yl-N-methylamino)-methyl)phenyl)-2,3-dihydro-1-benzoxepine-4-carboxamide]
Second: CN(Cc1ccc(NC(=O)C2=Cc3cc(-c4ccc(-n5ccnc5)cc4)ccc3OCC2)cc1)C1CCOCC1 [Compound 153, 7—(4—(1-imidazolyl)phenyl)-N-(4—((N-tetra-hydropyran-4-yl-N-methylamino)methyl)phenyl)-2,3-dihydro-1-benzoxepine-4-carboxamide]
The melting point of the first is lower: 158 to 159 °C for the first, 194 to 195 °C for the second.

With `CN(C)c1ccc(-c2ccc3c(c2)C=C(C(=O)Nc2ccc(CN(C)C4CCOCC4)cc2)CCO3)cc1` [Compound 149, 7—(4-dimethylaminophenyl)-N-(4—((N-tetrahydropyran-4-yl-N-methylamino)methyl)phenyl)-2,3-dihydro-1-benzoxepine-4-carboxamide] the melting point was 208 to 209 °C (dec.).
For `CN(C)c1ccc(-c2ccc3c(c2)C=C(C(=O)Nc2ccc(CP4(=O)CCCCC4)cc2)CCO3)cc1` [Compound 154, 7—(4-dimethylaminophenyl)-N-(4—((1-oxophosphorinan-1-yl)methyl)phenyl)-2,3-dihydro-1-benzoxepine-4-carboxamide], the melting point was 293 to 294 °C (dec.).
In the case of `Cc1ccc(-c2ccc3c(c2)C=C(C(=O)Nc2ccc(C(=O)C4CCCCN4)cc2)CCO3)cc1` (stereo not shown) [Compound 156, N-(4—(piperidin-2-ylcarbonyl)phenyl)-7—(4-methylphenyl)-2,3-dihydro-1-benzoxepine-4-carboxamide], the melting point is reported as 195 to 196 °C (dec.).
With `Cc1ccc(-c2ccc3c(c2)C=C(C(=O)Nc2ccc(-c4cccc[n+]4[O-])cc2)CCO3)cc1` [Compound 160, N-[4—(1-oxidopyridin-2-yl)phenyl]-7—(4-methylphenyl)-2,3-dihydro-1-benzoxepine-4-carboxamide] the melting point was 254 °C (dec.).

Source: patent US6413947B1, “Anilide derivative, production and use thereof” (Takeda Chemical Industries, Ltd., priority 1997, dated 2002)
